Source: ChEMBL document CHEMBL3616450, “Synthesis of oxygenated oleanolic and ursolic acid derivatives with anti-inflammatory properties” (Bioorg Med Chem Lett, 2015)
Active and inactive are the calls of the source. The calls are words filed in the database; no cut-off is given here.

Tests used:
Assay type in all cases: functional, organism-based
[1] = system: Mus musculus; assay: Antiinflammatory activity in […] mouse assessed as inhibition of TPA-induced IL-23 mRNA expression in epidermis at 2 umol administered topically 30 mins prior to TPA challenge for twice weekly over 2 weeks measured 6 hrs post last TPA challenge by qRT-PCR analysis
[2] = system: Mus musculus; assay: Antiinflammatory activity in […] mouse assessed as inhibition of TPA-induced IL-1alpha mRNA expression in epidermis at 2 umol administered topically 30 mins prior to TPA challenge for twice weekly over 2 weeks measured 6 hrs post last TPA challenge by qRT-PCR analysis
[3] = system: Mus musculus; assay: Antiinflammatory activity in […] mouse assessed as inhibition of TPA-induced IL-1beta mRNA expression in epidermis at 2 umol administered topically 30 mins prior to TPA challenge for twice weekly over 2 weeks measured 6 hrs post last TPA challenge by qRT-PCR analysis
[4] = system: Mus musculus; assay: Antiinflammatory activity in […] mouse assessed as inhibition of TPA-induced IL-6 mRNA expression in epidermis at 2 umol administered topically 30 mins prior to TPA challenge for twice weekly over 2 weeks measured 6 hrs post last TPA challenge by qRT-PCR analysis

With `C[C@H]1[C@H](C)CC[C@]2(C(=O)O)CC[C@]3(C)C(=CC[C@@H]4[C@@]5(C)C[C@@H](O)[C@H](O)C(C)(C)[C@@H]5CC[C@]43C)[C@H]12` the inhibition [1] was “Active”, the inhibition [2] was “Active” and the inhibition [3] was “Active”. The inhibition [4] was “Active”.

For `CC1(C)CC[C@]2(C(=O)O)CC[C@]3(C)C(=CC[C@@H]4[C@@]5(C)CC[C@H](O)C(C)(C)[C@@H]5CC[C@]43C)[C@@H]2C1`, the inhibition [1] was “inactive”, the inhibition [2] was “inactive” and the inhibition [3] was “inactive”. For the same compound, the inhibition [4] was “inactive”.

For `C[C@H]1[C@H](C)CC[C@]2(C(=O)O)CC[C@]3(C)C(=CC[C@@H]4[C@@]5(C)C[C@@H](O)[C@@H](O)C(C)(C)[C@@H]5CC[C@]43C)[C@H]12`, the inhibition [1] was “Active”, the inhibition [2] was “Active” and the inhibition [3] was “Active”. For the same compound, the inhibition [4] was “Active”.

With `CC1(C)CC[C@]2(C(=O)O)CC[C@]3(C)C(=CC[C@@H]4[C@@]5(C)C[C@@H](O)[C@H](O)C(C)(C)[C@@H]5CC[C@]43C)[C@@H]2C1` the inhibition [1] was “Active”, the inhibition [2] was “Active” and the inhibition [3] was “Active”. For the same compound, the inhibition [4] was “Active”.

For `C[C@H]1[C@H](C)CC[C@]2(C(=O)O)CC[C@]3(C)C(=CC[C@@H]4[C@@]5(C)CC[C@H](O)C(C)(C)[C@@H]5CC[C@]43C)[C@H]12`, the inhibition [1] was “inactive”, the inhibition [2] was “inactive” and the inhibition [3] was “inactive”. The inhibition [4] was “inactive”.

For `CC1(C)CC[C@]2(C(=O)O)CC[C@]3(C)C(=CC[C@@H]4[C@@]5(C)C[C@@H](O)[C@@H](O)C(C)(C)[C@@H]5CC[C@]43C)[C@@H]2C1`, the inhibition [1] was “inactive”, the inhibition [2] was “inactive” and the inhibition [3] was “inactive”. For the same compound, the inhibition [4] was “inactive”.
